Results taken from article PMC6979384, “Characterization of the plant homeodomain (PHD) reader family for their histone tail interactions” (Epigenetics & Chromatin, 2020).

Assays:
Test in all cases: Histone peptide microarray
Format in all cases: binding, human
BAZ2B = conditions: GST-tagged BAZ2B; sheet Array Heatmap; each array performed twice, total n = 4
Procedure, shortened: (§1)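 GST-PHD reader, 0.5 μM, probed on 293-peptide histone array (single/combinatorial PTMs); optimized array protocol; signal = mean ± SD, n = 4.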

RAG2 = conditions: GST-tagged RAG2; sheet Array Heatmap; each array performed twice, total n = 4
Procedure, shortened: as §1

KDM5A (3) = conditions: GST-tagged KDM5A (3); sheet Array Heatmap; each array performed twice, total n = 4
Procedure, shortened: as §1

KDM5B (3) = conditions: GST-tagged KDM5B (3); sheet Array Heatmap; each array performed twice, total n = 4
Procedure, shortened: as §1

MORC3 (CW) = conditions: GST-tagged MORC3 (CW = CW-type Zn-finger); sheet Array Heatmap; each array performed twice, total n = 4
Procedure, shortened: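 Readout is array binding signal, reported as the mean and standard deviation over four replicates. Each purified GST-fused PHD domain was incubated at 0.5 μM with a library of 293 modified histone peptides.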

ING3 = conditions: GST-tagged ING3; sheet Array Heatmap; each array performed twice, total n = 4
Procedure, shortened: as §1

KDM5A (1) = conditions: GST-tagged KDM5A (1); sheet Array Heatmap; each array performed twice, total n = 4
Procedure, shortened: as §1

CHD4 (PPCC) = conditions: GST-tagged CHD4 (PPCC = Dual PHD + Dual Chromodomain); sheet Array Heatmap; each array performed twice, total n = 4
Procedure, shortened: as §1

KDM4C (TTP) = conditions: GST-tagged KDM4C (TTP = Tandem Tudor domain + PHD); sheet Array Heatmap; each array performed twice, total n = 4
Procedure, shortened: as §1

PHF8 = conditions: GST-tagged PHF8; sheet Array Heatmap; each array performed twice, total n = 4
Procedure, shortened: as §1

ING2 = conditions: GST-tagged ING2; sheet Array Heatmap; each array performed twice, total n = 4
Procedure, shortened: as §1

KDM7A = conditions: GST-tagged KDM7A; sheet Array Heatmap; each array performed twice, total n = 4
Procedure, shortened: as §1

SP140L = conditions: GST-tagged SP140L; sheet Array Heatmap; each array performed twice, total n = 4
Procedure, shortened: as §1

AIRE (PP) = conditions: GST-tagged AIRE (PP); sheet Array Heatmap; each array performed twice, total n = 4
Procedure, shortened: as §1

TRIM66 (PB) = conditions: GST-tagged TRIM66 (PB = PHD + Bromodomain); sheet Array Heatmap; each array performed twice, total n = 4
Procedure, shortened: as §1

DPF2 (PPC2W2) = conditions: GST-tagged DPF2 (PPC2W2 = Dual PHD + C2W2-type Zn-finger); sheet Array Heatmap; each array performed twice, total n = 4
Procedure, shortened: as §1

CHD5 (PCC) = conditions: GST-tagged CHD5 (PCC = PHD + Dual Chromodomain); sheet Array Heatmap; each array performed twice, total n = 4
Procedure, shortened: as §1

TAF3 = conditions: GST-tagged TAF3; sheet Array Heatmap; each array performed twice, total n = 4
Procedure, shortened: as §1

PHF23 = conditions: GST-tagged PHF23; sheet Array Heatmap; each array performed twice, total n = 4
Procedure, shortened: as §1

ING1 = conditions: GST-tagged ING1; sheet Array Heatmap; each array performed twice, total n = 4
Procedure, shortened: as §1

CHD5 (PPCC) = conditions: GST-tagged CHD5 (PPCC = Dual PHD + Dual Chromodomain); sheet Array Heatmap; each array performed twice, total n = 4
Procedure, shortened: as §1

PHRF1 (RP) = conditions: GST-tagged PHRF1 (RP); sheet Array Heatmap; each array performed twice, total n = 4
Procedure, shortened: as §1

PHF2 = conditions: GST-tagged PHF2; sheet Array Heatmap; each array performed twice, total n = 4
Procedure, shortened: as §1

BPTF (PB) = conditions: GST-tagged BPTF (PB = PHD + Bromodomain); sheet Array Heatmap; each array performed twice, total n = 4
Procedure, shortened: as §1

PHF21A = conditions: GST-tagged PHF21A; sheet Array Heatmap; each array performed twice, total n = 4
Procedure, shortened: as §1

ING5 = conditions: GST-tagged ING5; sheet Array Heatmap; each array performed twice, total n = 4
Procedure, shortened: as §1

KDM5B (1) = conditions: GST-tagged KDM5B (1); sheet Array Heatmap; each array performed twice, total n = 4
Procedure, shortened: as §1

MLL5 = conditions: GST-tagged MLL5; sheet Array Heatmap; each array performed twice, total n = 4
Procedure, shortened: as §1

DIDO1 = conditions: GST-tagged DIDO1; sheet Array Heatmap; each array performed twice, total n = 4
Procedure, shortened: as §1

PHF13 = conditions: GST-tagged PHF13; sheet Array Heatmap; each array performed twice, total n = 4
Procedure, shortened: as §1

ING4 = conditions: GST-tagged ING4; sheet Array Heatmap; each array performed twice, total n = 4
Procedure, shortened: as §1

With H3K4me3 + K14ac + K18ac: H3 1-20 the “Array Heatmap signal (histone peptide microarray)” value (from here on “Array Heatmap signal”) (BAZ2B) was 0.6645, the “Array Heatmap signal” value (RAG2) was 1 and the “Array Heatmap signal” value (KDM5A (3)) was 0.9424. The “Array Heatmap signal” value (KDM5B (3)) was 0.9729, the “Array Heatmap signal” value (MORC3 (CW)) was 0.9877 and the “Array Heatmap signal” value (ING3) was 1. The “Array Heatmap signal” value (KDM5A (1)) was 0.5146, the “Array Heatmap signal” value (CHD4 (PPCC)) was 0.5986 and the “Array Heatmap signal” value (KDM4C (TTP)) was 0.868. For the same substance, the “Array Heatmap signal” value (PHF8) was 0.9943, the “Array Heatmap signal” value (ING2) was 0.908 and the “Array Heatmap signal” value (KDM7A) was 0.7919. The “Array Heatmap signal” value (SP140L) was 0.3709, the “Array Heatmap signal” value (AIRE (PP)) was 0.5611 and the “Array Heatmap signal” value (TRIM66 (PB)) was 0.7091. The “Array Heatmap signal” value (DPF2 (PPC2W2)) was 0.7705, the “Array Heatmap signal” value (CHD5 (PCC)) was 0.8498 and the “Array Heatmap signal” value (TAF3) was 1. The “Array Heatmap signal” value (PHF23) was 0.9183, the “Array Heatmap signal” value (ING1) was 0.9274 and the “Array Heatmap signal” value (CHD5 (PPCC)) was 0.6153. For the same substance, the “Array Heatmap signal” value (PHRF1 (RP)) was 0.6285, the “Array Heatmap signal” value (PHF2) was 0.829 and the “Array Heatmap signal” value (BPTF (PB)) was 1. For the same substance, the “Array Heatmap signal” value (PHF21A) was 0.4924, the “Array Heatmap signal” value (ING5) was 0.6681 and the “Array Heatmap signal” value (KDM5B (1)) was 0.8317. For the same substance, the “Array Heatmap signal” value (MLL5) was 0.9197, the “Array Heatmap signal” value (DIDO1) was 0.9566 and the “Array Heatmap signal” value (PHF13) was 0.9146. For the same substance, the “Array Heatmap signal” value (ING4) was 0.8448.

In the case of H3K4me3 + K14ac: H3 1-20, the “Array Heatmap signal” value (BAZ2B) is reported as 0.6127, the “Array Heatmap signal” value (RAG2) is reported as 0.9484 and the “Array Heatmap signal” value (KDM5A (3)) is reported as 0.8892. For the same substance, the “Array Heatmap signal” value (KDM5B (3)) was 0.7921, the “Array Heatmap signal” value (MORC3 (CW)) was 0.8691 and the “Array Heatmap signal” value (ING3) was 0.9261. The “Array Heatmap signal” value (KDM5A (1)) was 0.4609, the “Array Heatmap signal” value (CHD4 (PPCC)) was 0.6173 and the “Array Heatmap signal” value (KDM4C (TTP)) was 0.599. The “Array Heatmap signal” value (PHF8) was 0.6468, the “Array Heatmap signal” value (ING2) was 0.9757 and the “Array Heatmap signal” value (KDM7A) was 0.4569. The “Array Heatmap signal” value (SP140L) was 0.3446, the “Array Heatmap signal” value (AIRE (PP)) was 0.3995 and the “Array Heatmap signal” value (TRIM66 (PB)) was 0.6346. The “Array Heatmap signal” value (DPF2 (PPC2W2)) was 0.7495, the “Array Heatmap signal” value (CHD5 (PCC)) was 0.7404 and the “Array Heatmap signal” value (TAF3) was 0.7363. The “Array Heatmap signal” value (PHF23) was 0.8632, the “Array Heatmap signal” value (ING1) was 0.9202 and the “Array Heatmap signal” value (CHD5 (PPCC)) was 0.5519. For the same substance, the “Array Heatmap signal” value (PHRF1 (RP)) was 0.6002, the “Array Heatmap signal” value (PHF2) was 0.9532 and the “Array Heatmap signal” value (BPTF (PB)) was 0.8401. For the same substance, the “Array Heatmap signal” value (PHF21A) was 0.4155, the “Array Heatmap signal” value (ING5) was 0.4275 and the “Array Heatmap signal” value (KDM5B (1)) was 0.7346. The “Array Heatmap signal” value (MLL5) was 0.8336, the “Array Heatmap signal” value (DIDO1) was 1 and the “Array Heatmap signal” value (PHF13) was 0.8156. For the same substance, the “Array Heatmap signal” value (ING4) was 0.6504.

H3K4me3 + K18ac: H3 1-20 was tested, and the “Array Heatmap signal” value (BAZ2B) was 0.4486, the “Array Heatmap signal” value (RAG2) was 0.6973 and the “Array Heatmap signal” value (KDM5A (3)) was 0.9747. For the same substance, the “Array Heatmap signal” value (KDM5B (3)) was 0.8599, the “Array Heatmap signal” value (MORC3 (CW)) was 0.8723 and the “Array Heatmap signal” value (ING3) was 0.7492. For the same substance, the “Array Heatmap signal” value (KDM5A (1)) was 0.4457, the “Array Heatmap signal” value (CHD4 (PPCC)) was 0.6241 and the “Array Heatmap signal” value (KDM4C (TTP)) was 0.6519. The “Array Heatmap signal” value (PHF8) was 0.6791, the “Array Heatmap signal” value (ING2) was 0.9902 and the “Array Heatmap signal” value (KDM7A) was 0.4973. The “Array Heatmap signal” value (SP140L) was 0.3614, the “Array Heatmap signal” value (AIRE (PP)) was 0.4183 and the “Array Heatmap signal” value (TRIM66 (PB)) was 0.639. The “Array Heatmap signal” value (DPF2 (PPC2W2)) was 0.7175, the “Array Heatmap signal” value (CHD5 (PCC)) was 0.8106 and the “Array Heatmap signal” value (TAF3) was 0.7205. For the same substance, the “Array Heatmap signal” value (PHF23) was 1, the “Array Heatmap signal” value (ING1) was 1 and the “Array Heatmap signal” value (CHD5 (PPCC)) was 0.5532. For the same substance, the “Array Heatmap signal” value (PHRF1 (RP)) was 0.7444, the “Array Heatmap signal” value (PHF2) was 1 and the “Array Heatmap signal” value (BPTF (PB)) was 0.7125. The “Array Heatmap signal” value (PHF21A) was 0.4388, the “Array Heatmap signal” value (ING5) was 0.4874 and the “Array Heatmap signal” value (KDM5B (1)) was 0.7261. The “Array Heatmap signal” value (MLL5) was 0.8685, the “Array Heatmap signal” value (DIDO1) was 0.9924 and the “Array Heatmap signal” value (PHF13) was 0.813. For the same substance, the “Array Heatmap signal” value (ING4) was 0.674.
